Test results as given in PubChem BioAssay (NCI).
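Test compounds were applied to cells in 96-well plates for 48 hours at 5 doses. GI50 is the concentration that inhibits growth by half. The concentration for full growth arrest is given as TGI.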

Legend:
Assay in all cases: NCI anticancer screen, dose series, 48 h
CCRF-CEM leukemia = test system: CCRF-CEM leukemia
HOP-62 NSCLC = test system: HOP-62 NSCLC
OVCAR-8 ovarian = test system: OVCAR-8 ovarian
NCI-H226 lung = test system: NCI-H226 lung
SNB-75 CNS = test system: SNB-75 CNS
SW-620 colon = test system: SW-620 colon
M14 melanoma = test system: M14 melanoma
RXF 393 renal = test system: RXF 393 renal
HCT-15 colon = test system: HCT-15 colon
SR leukemia = test system: SR leukemia

`COC(=O)/C(=N\NC(N)=S)C(C#N)c1ccccc1` (configuration not stated) was tested, and the TGI (CCRF-CEM leukemia) was over 100 µM, the TGI (HOP-62 NSCLC) was over 100 µM and the TGI (OVCAR-8 ovarian) was over 100 µM. The TGI (NCI-H226 lung) was over 100 µM, the TGI (SNB-75 CNS) was over 100 µM and the TGI (SW-620 colon) was over 100 µM. For the same compound, the TGI (M14 melanoma) was over 100 µM, the TGI (RXF 393 renal) was over 100 µM and the TGI (HCT-15 colon) was over 100 µM.
For `Cc1cc([N+](=O)[O-])c(C)c(Br)c1C`, the TGI (HOP-62 NSCLC) was over 100 µM, the TGI (OVCAR-8 ovarian) was over 100 µM and the TGI (NCI-H226 lung) was over 100 µM. The TGI (SNB-75 CNS) was over 100 µM, the TGI (SW-620 colon) was over 100 µM and the TGI (M14 melanoma) was over 100 µM. It also gave a TGI (RXF 393 renal) of over 100 µM and a TGI (HCT-15 colon) of over 100 µM.
Compound `Cc1ccc(C(C)C)cc1NC(=O)Nc1ccc([N+](=O)[O-])cc1` has a GI50 (CCRF-CEM leukemia) of 1.97 µM, a TGI (CCRF-CEM leukemia) of 5.53 µM and a GI50 (HOP-62 NSCLC) of 2.53 µM. It also gave a TGI (HOP-62 NSCLC) of 5.92 µM, a GI50 (OVCAR-8 ovarian) of 3.19 µM and a TGI (OVCAR-8 ovarian) of 11.6 µM. The GI50 (NCI-H226 lung) was 1.77 µM, the TGI (NCI-H226 lung) was 6.14 µM and the GI50 (SNB-75 CNS) was 2.52 µM. For the same compound, the TGI (SNB-75 CNS) was 10.5 µM, the GI50 (SW-620 colon) was 2.89 µM and the TGI (SW-620 colon) was 10.7 µM. For the same compound, the GI50 (M14 melanoma) was 2.45 µM, the TGI (M14 melanoma) was 7.28 µM and the GI50 (RXF 393 renal) was 2.81 µM. It also gave a TGI (RXF 393 renal) of 13.5 µM, a GI50 (HCT-15 colon) of 2.44 µM and a TGI (HCT-15 colon) of 8.94 µM.
`COc1ccc(S(=O)(=O)N(C)CC(=O)O)cc1` showed a TGI (CCRF-CEM leukemia) of over 100 µM, a TGI (OVCAR-8 ovarian) of over 100 µM and a TGI (NCI-H226 lung) of over 100 µM. The TGI (SNB-75 CNS) was over 100 µM, the TGI (SW-620 colon) was over 100 µM and the TGI (M14 melanoma) was over 100 µM. The TGI (RXF 393 renal) was over 100 µM and the TGI (HCT-15 colon) was over 100 µM.
For `C=[CH][Sn]([CH]=C)([O]c1cccc2cccnc12)[O]c1cccc2cccnc12`, the GI50 (HOP-62 NSCLC) was 10.7 µM, the TGI (HOP-62 NSCLC) was 32.8 µM and the GI50 (OVCAR-8 ovarian) was 3.76 µM. For the same compound, the TGI (OVCAR-8 ovarian) was 18.2 µM, the GI50 (NCI-H226 lung) was 2.95 µM and the TGI (NCI-H226 lung) was 9.47 µM. For the same compound, the GI50 (SNB-75 CNS) was 3.95 µM, the TGI (SNB-75 CNS) was 14 µM and the GI50 (SW-620 colon) was 1.13 µM. It also gave a TGI (SW-620 colon) of 3.44 µM, a GI50 (M14 melanoma) of 2.11 µM and a TGI (M14 melanoma) of 5.92 µM. It also gave a GI50 (RXF 393 renal) of 0.28 µM, a TGI (RXF 393 renal) of 1.21 µM and a GI50 (HCT-15 colon) of 2.36 µM. The TGI (HCT-15 colon) was 6.4 µM.
For `Nc1ccc2c(c1)c(N)nn2C(=O)Nc1ccc(Cc2ccccc2)cc1`, the GI50 (CCRF-CEM leukemia) was 2.07 µM, the TGI (CCRF-CEM leukemia) was 18.8 µM and the GI50 (HOP-62 NSCLC) was 11.2 µM. The TGI (HOP-62 NSCLC) was 27 µM, the GI50 (OVCAR-8 ovarian) was 20.2 µM and the TGI (OVCAR-8 ovarian) was over 100 µM. For the same compound, the GI50 (NCI-H226 lung) was 16.1 µM, the TGI (NCI-H226 lung) was 38.3 µM and the GI50 (SNB-75 CNS) was 17.4 µM. It also gave a TGI (SNB-75 CNS) of 31.5 µM, a GI50 (SW-620 colon) of 4.48 µM and a TGI (SW-620 colon) of 18.7 µM. The GI50 (M14 melanoma) was 4.59 µM, the TGI (M14 melanoma) was 17.8 µM and the GI50 (RXF 393 renal) was 21.4 µM. It also gave a TGI (RXF 393 renal) of 43.9 µM, a GI50 (HCT-15 colon) of 2.75 µM and a TGI (HCT-15 colon) of 14.2 µM.
In the case of `N=C1C=C(N)C(=O)c2[nH]c(=O)ccc21`, the TGI (CCRF-CEM leukemia) was 5.81 µM, the TGI (HOP-62 NSCLC) was 3.59 µM and the TGI (NCI-H226 lung) was 6.04 µM. It also gave a TGI (SW-620 colon) of 6.7 µM, a TGI (M14 melanoma) of 28.7 µM and a TGI (RXF 393 renal) of 3.29 µM. The TGI (HCT-15 colon) was 4.06 µM.
Work on `CC1COCC(C)N1C1=C(Cl)C(=O)c2ccccc2C1=O` (configuration not stated) yielded a GI50 (HOP-62 NSCLC) of 14 µM, a TGI (HOP-62 NSCLC) of 27.4 µM and a GI50 (OVCAR-8 ovarian) of 3.73 µM. It also gave a TGI (OVCAR-8 ovarian) of 13.6 µM, a GI50 (NCI-H226 lung) of 15.1 µM and a TGI (NCI-H226 lung) of 31.2 µM. It also gave a GI50 (SNB-75 CNS) of 10.7 µM, a TGI (SNB-75 CNS) of 23.2 µM and a GI50 (SW-620 colon) of 1.74 µM. It also gave a TGI (SW-620 colon) of 3.24 µM, a GI50 (M14 melanoma) of 6.53 µM and a TGI (M14 melanoma) of 19.5 µM. For the same compound, the GI50 (RXF 393 renal) was 1.9 µM, the TGI (RXF 393 renal) was 4.22 µM and the GI50 (HCT-15 colon) was 6.5 µM. The TGI (HCT-15 colon) was 23.4 µM, the GI50 (SR leukemia) was 2.28 µM and the TGI (SR leukemia) was 5.97 µM.
